Like-named read-outs stand apart in the source and are kept apart here. Non-standard residues stand in square brackets, D forms with d. Residues, ends and D or L forms follow the SMILES beside them. NMeL = CN[C@@H](CC(C)C)C(=O)O
Assays:
[1] = tested on: S. aureus (MRSA) ATCC 33591; assay type: cell-based, Staphylococcus aureus; details: for MRSA MIC / S. aureus (MRSA) MIC: ATCC 33591; for MRSA (in vitro activity): Table 9, media a: anti-microbial media-3 (AM-3)
Method in brief: (§1)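 MIC read from NCCLS-style broth dilution. Peptide concentrations were set by quantitative HPLC or Trp UV absorbance at 280 nm, then serially halved from about 400 to 2 μg/ml in 5% DMSO/9% sucrose. Inoculum: approximately 2.5×10^5 cfu/ml.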

murine red blood cells = assay: Red blood cell hemolysis; assay type: cell-based, mouse; details: for Hemolysis HD50: red cells of murine
Method in brief: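 Washed murine erythrocytes at 5% in saline with 10% FBS were exposed to serial peptide dilutions for 30 min at 37° C. Supernatant absorbance at 560 nm was read, with saline as 0% and 1% Triton X-100 as 100% hemolysis.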

E. coli JM109(DE3) = assay type: cell-based, Escherichia coli; details: JM109
Experimental: (§2) The antimicrobial activity of the peptides was determined using a broth dilution assay essentially as descried in the guidelines of the National Committee for […] (NCCLS) [National Committee for Clinical Laboratory Standards. Methods for dilution antimicrobial susceptibility tests for bacteria that grow aerobically. Fourth edition. Approved Standard (1997). Document M7-A4. […] The microdilution method has the advantages of requiring less amount of peptide for each assay and the possibility of multiple simultaneous inoculations and was used in most studies. Several of the strains of bacteria tested are further described in Table 3.
(§3) Preparation of peptide solutions. Stock peptide solutions were prepared in 5% DMSO in aq. sucrose (9%). Determination of peptide concentrations was done by quantitative HPLC analysis using known concentrations of internal standards and/or by measuring UV absorption of tryptophane-containing peptide solutions in H2O (λ=280 εTrp: 5690). Serial 2-fold dilutions were made in the above DMSO/aq. sucrose (9%) mixture with concentrations ranging approximately 400-2 μg/ml and aliquots were dispensed in test tubes (100 μl) for the macrodilution test or in microtiter plates (20 μl) for the microdilution assays.
(§4) Inoculum preparation. Overnight cultures of different microorganisms grown in suitable media were diluted 4000 times to an approximate inoculum size of 2.5×10^5 cfu/ml.
(§5) Macrodilution method. Macrodilution methods were performed using procedures similar to those described in the National Committee for Clinical Laboratory Standards. Methods for dilution antimicrobial susceptibility tests for bacteria that grow aerobically. Fourth edition. Approved Standard (1997). Document M7-A4. (NCCLS,Villanova, Pa., 1997). Two ml aliquots of the above inoculum were dispensed to test tubes containing different peptide solutions.
(§6) Microdilution method. Microdilution methods were performed using procedures similar to those described in the National Committee for Clinical Laboratory Standards. Methods for dilution antimicrobial susceptibility tests for bacteria that grow aerobically. Fourth edition. Approved Standard (1997). Document M7-A4.

[2] = tested on: Streptococcus pneumoniae (ATCC 6301); assay type: cell-based
Experimental: as §2, §3, §4, §5, §6

[3] = tested on: Bacillus cereus ATCC 11778; assay type: cell-based
Experimental: as §2, §3, §4, §5, §6

[4] = tested on: vancomycin-resistant Enterococus faecalis (VRE)(ATCC 51575); assay type: cell-based, Enterococcus faecalis; set-up: key to VRE (in vitro activity): peptide concentration in μg/ml (broth dilution assay); details: for VRE MIC: ATCC 51575; for VRE (in vitro activity): Table 9, media a: AM-3
Method in brief: as §1

Compound	MRSA MIC [1] [µg/mL]	Hemolysis HD50 (murine red blood cells) [µg/mL]	E. coli MIC (E. coli JM109(DE3)) [µg/mL]	S. pneum. MIC [2] [µg/mL]	B. cerius MIC [3] [µg/mL]	MRSA MIC ([1]; Table 10)	VRE MIC [4] [µg/mL]	S. aureus (MRSA) MIC [1] [µg/mL]	MRSA (in vitro activity) [1]	RBC Hemolysis (HD50) (murine red blood cells)	VRE (in vitro activity) [4]
CC(C)C[C@@H]1NC(=O)[C@@H](Cc2c[nH]c3ccccc23)NC(=O)[C@H](CCCNC(=N)N)NC(=O)[C@@H](CCCNC(=N)N)NC(=O)[C@H](CCCNC(=N)N)NC(=O)[C@@H](Cc2c[nH]c3ccccc23)NC(=O)[C@H](CC(C)C)NC(=O)[C@@H](Cc2c[nH]c3ccccc23)NC1=O [SEQ ID NO:133, [RRRWLWLW]] (cyclo(R[dR]R[dW]L[dW]L[dW]))	10	35	35	5	10	–	–	–	–	–	–
CC(C)C[C@H]1NC(=O)[C@H](CCCCN)NC(=O)[C@@H](CC(C)C)NC(=O)[C@H](Cc2c[nH]c3ccccc23)NC(=O)[C@@H](CC(C)C)NC(=O)[C@H](Cc2c[nH]c3ccccc23)NC(=O)[C@@H](CC(C)C)NC(=O)[C@H](Cc2c[nH]c3ccccc23)NC1=O [SEQ ID NO:3, cyclo[-Lys-D-Leu-(Trp-D-Leu)3]] (cyclo(K[dL]W[dL]W[dL]W[dL]))	–	20	100	50	50	ppt	80	–	–	–	–
CC(C)C[C@H]1NC(=O)[C@H](Cc2c[nH]c3ccccc23)NC(=O)[C@@H](CCCNC(=N)N)NC(=O)[C@H](CCCNC(=N)N)NC(=O)[C@@H](CCCNC(=N)N)NC(=O)[C@H](Cc2c[nH]c3ccccc23)NC(=O)[C@@H](CC(C)C)NC(=O)[C@H](Cc2c[nH]c3ccccc23)NC1=O [SEQ ID NO:20, RRRWLWLW] (cyclo([dR]R[dR]W[dL]W[dL]W))	–	35	50	–	–	–	–	10	–	–	–
CC(C)C[C@H]1NC(=O)[C@H](CCCCN)NC(=O)[C@@H](CCCNC(=N)N)NC(=O)[C@H](Cc2c[nH]c3ccccc23)NC(=O)[C@@H](CC(C)C)NC(=O)[C@H](Cc2c[nH]c3ccccc23)NC1=O [SEQ ID NO:141, [RKLWLW]] (cyclo([dR]K[dL]W[dL]W))	25	–	–	20	13	–	25	–	–	–	–
CC(C)C[C@H]1NC(=O)[C@H](Cc2c[nH]c3ccccc23)NC(=O)[C@@H](CCCCN)NC(=O)[C@H](CCCNC(=N)N)NC(=O)[C@@H](CCCNC(=N)N)NC(=O)[C@H](Cc2c[nH]c3ccccc23)NC(=O)[C@@H](CC(C)C)NC(=O)[C@H](CCC(=O)O)NC1=O [SEQ ID NO:109, [RRKWLELW]] (cyclo([dR]R[dK]W[dL]E[dL]W))	80	100	40	100	195	–	100	–	80	100	100
CC(C)C[C@H]1NC(=O)[C@H](Cc2c[nH]c3ccccc23)NC(=O)[C@@H](CCCCN)NC(=O)[C@H](CCCNC(=N)N)NC(=O)[C@@H](CCCNC(=N)N)NC(=O)[C@H](Cc2c[nH]c3ccccc23)NC(=O)[C@@H](CC(C)C)NC(=O)[C@H](CCCCN)NC1=O [SEQ ID NO:111, [RRKWLKLW]] (cyclo([dR]R[dK]W[dL]K[dL]W))	12	100	6	25	23	–	80	–	12	100	80
CC(C)C[C@H]1NC(=O)[C@H](CCC(=O)O)NC(=O)[C@@H](CCCCN)NC(=O)[C@H](Cc2c[nH]c3ccccc23)NC(=O)[C@@H](CC(C)C)NC(=O)[C@H](Cc2c[nH]c3ccccc23)NC(=O)[C@@H](CC(C)C)NC(=O)[C@H](Cc2c[nH]c3ccccc23)NC1=O [SEQ ID NO:143, [KELWLWLW]] (cyclo([dK]E[dL]W[dL]W[dL]W))	100	–	–	100	> 140	–	100	–	–	–	–
CC(C)C[C@H]1NC(=O)[C@H](Cc2c[nH]c3ccccc23)NC(=O)[C@@H](CCCCN)NC(=O)[C@H](CCC(N)=O)NC(=O)[C@@H](CCCCN)NC(=O)[C@H](Cc2c[nH]c3ccccc23)NC(=O)[C@@H](CC(C)C)NC(=O)[C@H](Cc2c[nH]c3ccccc23)NC1=O [SEQ ID NO:11, cyclo-[Gln-D-Lys-(Trp-D-Leu)2-Trp-D-Lys-]] (cyclo([dK]Q[dK]W[dL]W[dL]W))	20	–	100	8	7	–	20	45	–	–	–
CC(C)C[C@H]1C(=O)N[C@H](Cc2c[nH]c3ccccc23)C(=O)N(C)[C@@H](CC(C)C)C(=O)N[C@H](Cc2c[nH]c3ccccc23)C(=O)N[C@@H](CCCCN)C(=O)N[C@H](CCC(N)=O)C(=O)N[C@@H](CCCNC(=N)N)C(=O)N[C@H](Cc2c[nH]c3ccccc23)C(=O)N1C [SEQ ID NO:140, c[KQRW^MeLW^MeLW]] (cyclo(K[dQ]R[dW][NMeL][dW][NMeL][dW]))	10	–	–	10	8	–	100	–	–	–	–
CC(C)C[C@H]1NC(=O)[C@H](Cc2c[nH]c3ccccc23)NC(=O)[C@@H](Cc2c[nH]cn2)NC(=O)[C@H](CCCCN)NC(=O)[C@@H](CO)NC(=O)[C@H](Cc2c[nH]c3ccccc23)NC(=O)[C@@H](CC(C)C)NC(=O)[C@H](Cc2c[nH]c3ccccc23)NC1=O [SEQ ID NO:14, cyclo-(D-Ser-Lys-D-His-Trp-D-Leu-Trp-D-Leu-Trp)] (cyclo(K[dH]W[dL]W[dL]W[dS]))	15	–	100	–	6	–	30	15	15	20	30
CC(C)C[C@H]1NC(=O)[C@H](Cc2c[nH]c3ccccc23)NC(=O)[C@@H](CCCNC(=N)N)NC(=O)[C@H](CCC(N)=O)NC(=O)[C@@H](CCCNC(=N)N)NC(=O)[C@H](Cc2c[nH]c3ccccc23)NC(=O)[C@@H](CC(C)C)NC(=O)[C@H](Cc2c[nH]c3ccccc23)NC1=O [SEQ ID NO:10, RQRWLWLW] (cyclo([dR]Q[dR]W[dL]W[dL]W))	10	–	–	4	< 1	–	10	18	10	25	10
CC(C)C[C@@H](NC(=O)[C@H](Cc1c[nH]c2ccccc12)NC(=O)[C@@H](CC(C)C)NC(=O)[C@H](Cc1c[nH]c2ccccc12)NC(=O)[C@@H](CCCCN)NC(=O)[C@H](CCCCN)NC(=O)[C@@H](CCCCN)NC(=O)[C@@H](N)Cc1c[nH]c2ccccc12)C(=O)O [SEQ ID NO:144, H-WKKKWLWL-OH] (H-W[dK]K[dK]W[dL]W[dL]-OH)	60	–	–	100	340	–	100	–	–	–	–
